Measurements taken from patent US8741888B2, “Sleep aid composition and method” (priority 2010, dated 2014).
Where two headings read alike, the source gives them in different places.

Assays:
[1] = system: human
[2] = system: human; settings: cited from earlier work
[3] = previous range about 170-174 pounds held for ten years

In the case of `OCCOCCN1CCN(C2=Nc3ccccc3Sc3ccccc32)CC1` [quetiapine], the “drowsiness after getting up” value ([1]; quetiapine (Seroquel) alone, 75 mg reduced gradually to 50 mg) is reported as “leaving them drowsy, especially in the mornings”, the “drowsiness after getting up” value ([1]; quetiapine alone, 25 mg) is reported as “did not leave them drowsy after getting up” and the “time the drug had to be taken before going to bed” value ([1]; quetiapine alone, 25 mg) is reported as “an hour to an hour and a half”. The “grogginess after additional dose taken during the night” value ([1]; quetiapine alone, 25 mg plus additional quetiapine) was “left them a bit groggy during the early part of the day”, the “dosage ultimately required after development of tolerance” value ([2]; quetiapine, Mariani et al. report) was 800 mg and the “time after ingestion before the drug enters the system” value ([2]; quetiapine, background) was “about an hour or more”. The “side effect at recommended amounts” value ([2]; quetiapine, Wikipedia, Seroquel prescribing information) was “somnolence (drowsiness)” and the body weight [3] was 184 pounds.
With `Cc1ccc(-c2nc3ccc(C)cn3c2CC(=O)N(C)C)cc1` [zolpidem] the “ability to sleep without the drug (dependence)” value ([1]; after extended use of zolpidem alone) was “unable to sleep without zolpidem”, the “time asleep before getting up to empty their bladder” value ([1]; inventor, nightly use) was “four or even three” and the “time kept asleep per dose” value ([1]; zolpidem (Ambien) alone) was “about four”. The duration of effectiveness ([2]; zolpidem alone, background) was “about four”, the “time of use after which tolerance can develop” value ([2]; zolpidem alone, background) was “just a few weeks” and the “period of use after which the drug becomes addictive” value ([2]; zolpidem alone, Kirkwood, Mariani et al.) was “about two months or longer”. The “effectiveness in maintaining sleep” value ([2]; zolpidem, Wikipedia, Rosenberg 2006) was “has not adequately demonstrated effectiveness in maintaining sleep”.
